Experiments:
[1] = molecular target: T1, unphosphorylated VEGF-R2Δ50 (FLVK) (Homo sapiens, UniProt P35968, DEL940-989/E990V); test: VEGF-R2 coupled spectrophotometric assay, unphosphorylated VEGF-R2Δ50 (FLVK); assay type: biochemical; conditions: unphosphorylated VEGF-R2Δ50; for inhibition at 0.05 µM: 50 nM compound, read-out: FLVK (% inh @ 50 nM)
T1 construct: VEGF-R2Δ50 contains residues 806–939 and 990–1171; made in house; host or cells: baculovirus/insect cell system
From the text: VEGF-R2 Construct for Assay:
This construct determines the ability of a test compound to inhibit tyrosine kinase activity. A construct (VEGF-R2Δ50) of the cytosolic domain of human vascular endothelial growth factor receptor 2 (VEGF-R2) lacking the 50 central residues of the 68 residues of the kinase insert domain was expressed in a baculovirus/insect cell system. Of the 1356 residues of full-length VEGF-R2, VEGF-R2Δ50 contains residues 806–939 and 990–1171, and also one point mutation (E990V) within the kinase insert domain relative to wild-type VEGF-R2. Autophosphorylation of the purified construct was performed by incubation of the enzyme at a concentration of 4 μM in the presence of 3 mM ATP and 40 mM MgCl2 in 100 mM HEPES, pH 7.5, containing 5% glycerol and 5 mM DTT, at 4° C. for 2 h. […] See Parast et al., Biochemistry, 37, 16788–16801 (1998).
Coupled Spectrophotometric (FLVK-P) Assay
The production of ADP from ATP that accompanies phosphoryl transfer was coupled to oxidation of NADH using phosphoenolpyruvate (PEP) and a system having pyruvate kinase (PK) and lactic dehydrogenase (LDH). The oxidation of NADH was monitored by following the decrease of absorbance at 340 nm (e340=6.22 cm^−1 mM^−1) using a Beckman DU 650 spectrophotometer. Assay conditions for phosphorylated VEGF-R2Δ50 (indicated as FLVK-P in the tables below) were the following: 1 mM PEP; 250 μM NADH; 50 units of LDH/mL; 20 units of PK/mL; 5 mM DTT; 5.1 mM poly(E4Y1); 1 mM ATP; and 25 mM MgCl2 in 200 mM HEPES, pH 7.5. Assay conditions for unphosphorylated VEGF-R2Δ50 (indicated as FLVK in the tables) were the following: 1 mM PEP; 250 μM NADH; 50 units of LDH/mL; 20 units of PK/mL; 5 mM DTT; 20 mM poly(E4Y1); 3 mM ATP; and 60 mM MgCl2 and 2 mM MnCl2 in 200 mM HEPES, pH 7.5. Assays were initiated with 5 to 40 nM of enzyme. Ki values were determined by measuring enzyme activity in the presence of varying concentrations of test compounds. […] The binding inhibitions were fitted to equation as described by Morrison. The data were analyzed using Enzyme Kinetic and Kaleidagraph software.

[2] = tested on: human umbilical vein endothelial cells (HUVEC); test: HUVEC+VEGF proliferation assay; assay type: cell-based; conditions: Homo sapiens, HUVEC; VEGF 6 ng/mL, 72 h, MTT
Experimental: HUVEC+VEGF Proliferation Assay
This assay determines the ability of a test compound to inhibit the growth factor-stimulated proliferation of human umbilical vein endothelial cells (“HUVEC”). HUVEC cells (passage 3–4; Clonetics, Corp.) were thawed into EGM2 culture medium (Clonetics Corp) in T75 flasks. Fresh EGM2 medium was added to the flasks 24 hours later. Four or five days later, cells were exposed to another culture medium (F12K medium supplemented with 10% fetal bovine serum (FBS), 60 μg/mL endothelial cell growth supplement (ECGS), and 0.1 mg/mL heparin). Exponentially-growing HUVEC cells were used in experiments thereafter. Ten to twelve thousand HUVEC cells were plated in 96-well dishes in 100 μl of rich, culture medium (described above). The cells were allowed to attach for 24 hours in this medium. The medium was then removed by aspiration and 105 μl of starvation media (F12K+1% FBS) was added to each well. After 24 hours, 15 μl of test agent dissolved in 1% DMSO in starvation medium or this vehicle alone was added into each treatment well; the final DMSO concentration was 0.1%. One hour later, 30 μl of VEGF (30 ng/mL) in starvation media was added to all wells except those containing untreated controls; the final VEGF concentration was 6 ng/mL. Cellular proliferation was quantified 72 hours later by MTT dye reduction, at which time cells were exposed for 4 hours MTT (Promega Corp.). Dye reduction was stopped by addition of a stop solution (Promega Corp.) and absorbance at 595 nm was determined on a 96-well spectrophotometer plate reader.

PDGFRβ = molecular target: T2, PDGFRβ (Homo sapiens, UniProt P09619); test: PAE-PDGFRβ phosphorylation in PAE-PDGFRB cells assay; assay type: cell-based; conditions: PAE cells overexpressing human PDGFRβ, PDGF-BB stimulated; read-out: PAE PDGFR autophos IC50 (nM) AVG
T2 construct: expressed in transfected cells; host or cells: porcine aorta endothelial (PAE)-PDGFRβ cells
Experimental: PAE-PDGFRβ Phosphorylation in PAE-PDGFRB Cells Assay
This assay determines the ability of a test compound to inhibit the autophosphorylation of PDGFRβ in porcine aorta endothelial (PAE)-PDGFRβ cells. PAE cells that overexpress human PDGFRβ were used in this assay. The cells were cultured in Ham's F12 media supplemented with 10% fetal bovine serum (FBS) and 400 ug/ml G418. Twenty thousands cells were seeded in each well of a 96-well plate in 50 μL of growth media and allowed to attach for 6 hours at 37° C. Cells were then exposed to the starvation media (Ham's F12 media supplemented with 0.1% FBS) for 16 hours. After the starvation period was over, 10 μL of test agent in 5% DMSO in starvation media were added to the test wells and 10 μL of the vehicle (5% DMSO in starvation media) were added into the control wells. The final DMSO concentration in each well was 0.5%. Plates were incubated at 37° C. for 1 hour and the cells were then stimulated with 1 μg/mL PDGF-BB (R & D System) in the presence of 2 mM Na3VO4 for 8 minutes. The cells were washed once with 1 mm Na3VO4 in HBSS and lysed by adding 50 μL per well of lysis buffer. One hundred μL of dilution buffer were then added to each well and the diluted cell lysate was transferred to a 96-well goat ant-rabbit coated plate (Pierce), which was pre-coated with Rabbit anti Human PDGFRβ antibody (Santa Cruz). The plates were incubated at room temperature for 2 hours and washed seven times with 1% Tween 20 in PBS. HRP-PY20 (Santa Cruz) was diluted and added to the plate for a 30-minute incubation. Plates were then washed again and TMB peroxidase substrate (Kirkegaard & Perry) was added for a 10-minute incubation. One hundred μL of 0.09 N H2SO4 was added into each well of the 96-well plate to stop the reaction. Phosphorylation status was assessed by spectrophotometer reading at 450 nm. IC50 values were calculated by curve fitting using a four-parameter analysis.

T2 sequence (P09619 33-1106): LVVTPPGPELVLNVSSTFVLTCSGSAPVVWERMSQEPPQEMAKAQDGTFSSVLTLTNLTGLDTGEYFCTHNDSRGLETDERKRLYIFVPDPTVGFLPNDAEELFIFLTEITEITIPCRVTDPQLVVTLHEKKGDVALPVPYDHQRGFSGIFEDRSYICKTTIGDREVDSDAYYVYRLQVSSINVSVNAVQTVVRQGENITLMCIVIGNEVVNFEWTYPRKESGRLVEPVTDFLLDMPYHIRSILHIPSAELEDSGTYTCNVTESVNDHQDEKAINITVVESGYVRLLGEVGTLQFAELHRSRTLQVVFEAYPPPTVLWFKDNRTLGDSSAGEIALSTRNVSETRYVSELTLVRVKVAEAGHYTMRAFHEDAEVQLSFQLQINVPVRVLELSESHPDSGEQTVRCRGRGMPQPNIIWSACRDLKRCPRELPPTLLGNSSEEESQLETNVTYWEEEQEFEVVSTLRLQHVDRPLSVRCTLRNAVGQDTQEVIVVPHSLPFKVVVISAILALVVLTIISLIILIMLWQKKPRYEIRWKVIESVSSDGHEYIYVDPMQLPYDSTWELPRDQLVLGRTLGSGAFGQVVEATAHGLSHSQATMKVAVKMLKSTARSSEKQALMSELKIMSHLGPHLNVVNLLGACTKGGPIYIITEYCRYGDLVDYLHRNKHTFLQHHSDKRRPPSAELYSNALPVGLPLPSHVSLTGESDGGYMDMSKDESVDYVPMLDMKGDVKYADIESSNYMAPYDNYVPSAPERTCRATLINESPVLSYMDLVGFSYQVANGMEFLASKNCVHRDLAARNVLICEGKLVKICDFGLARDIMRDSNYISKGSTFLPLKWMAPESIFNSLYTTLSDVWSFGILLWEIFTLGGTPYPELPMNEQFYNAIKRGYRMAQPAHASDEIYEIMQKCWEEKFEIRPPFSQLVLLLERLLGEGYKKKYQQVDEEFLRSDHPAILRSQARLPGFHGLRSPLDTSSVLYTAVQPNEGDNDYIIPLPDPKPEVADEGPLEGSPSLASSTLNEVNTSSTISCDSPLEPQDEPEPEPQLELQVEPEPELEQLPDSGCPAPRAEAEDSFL
T1 sequence (P35968 with tags, fused parts or gaps DEL940-989/E990V limits assumed): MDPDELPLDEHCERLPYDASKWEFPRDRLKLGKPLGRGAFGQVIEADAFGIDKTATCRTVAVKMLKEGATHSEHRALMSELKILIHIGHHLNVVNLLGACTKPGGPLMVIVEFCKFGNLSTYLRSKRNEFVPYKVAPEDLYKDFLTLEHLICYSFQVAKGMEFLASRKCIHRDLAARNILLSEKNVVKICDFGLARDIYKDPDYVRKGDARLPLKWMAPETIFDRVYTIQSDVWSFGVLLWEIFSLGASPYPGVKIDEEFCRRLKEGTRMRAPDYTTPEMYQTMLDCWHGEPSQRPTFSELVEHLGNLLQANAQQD

Row | SMILES | inhibition at 0.05 µM [1] | Ki [1] | IC50 (PDGFRβ) | IC50 [2]
1 | CNC(=O)c1c(C)n(C)c2cc(Oc3ccnc4cc(C(=O)N5C[C@@H](O)[C@@H](O)C5)sc34)ccc12 [Example 37, 6-[2-(3,4-Dihydroxy-pyrrolidine-1-carbonyl)-thieno[3,2-b]pyridin-7-yloxy]-1,2-dimethyl-1H-indole-3-carboxylic acid methylamide] | 66% | 4.3 nM | – | 10 nM
2 | CNC(=O)c1c(C)n(C)c2cc(Oc3ccnc4cc(C(=O)N5CCC(CN)C5)sc34)ccc12 (stereo not drawn) [Example 45, 6-[2-(3-Aminomethyl-pyrrolidine-1-carbonyl)-thieno[3,2-b]pyridin-7-yloxy]-1,2-dimethyl-1H-indole-3-carboxylic acid methylamide] | 64% | 4.65 nM | 26.9 nM | 10 nM
3 | CNCC1CCN(C(=O)c2cc3nccc(Oc4ccc5c(C(=O)NC)c(C)n(C)c5c4)c3s2)C1 (stereo not drawn) [Example 46, 1,2-Dimethyl-6-[2-(3-methylaminomethyl-pyrrolidine-1-carbonyl)-thieno[3,2-b]pyridin-7-yloxy]-1H-indole-3-carboxylic acid methylamide] | 68% | 6.49 nM | – | 3.13 nM
4 | Cc1c(C(=O)NCC2CC2)c2ccc(Oc3ccnc4cc(-c5nccn5C)sc34)cc2n1C [Example 55, N-(Cyclopropylmethyl)-1,2-dimethyl-6-{[2-(1-methyl-1H-imidazol-2-yl)thieno[3,2-b]pyridin-7-yl]oxy}-1H-indole-3-carboxamide] | 62% | 4.86 nM | 31 nM | 5.8 nM
5 | Cc1oc2cc(Oc3ccnc4cc(C(=O)N5CCC[C@H]5CO)sc34)ccc2c1C(=O)NCC(C)C [Example 86, 2-Methyl-6-[2-(2-hydroxymethyl-pyrrolidine-1-carbonyl)-thieno[3,2-b]pyridin-7-yloxy]-benzofuran-3-carboxylic acid isobutyl amide] | 81% | 1.44 nM | 17.9 nM | 3.07 nM
6 | CCc1oc2cc(Oc3ccnc4cc(C(=O)N5CCC5)sc34)ccc2c1C(=O)NC [Example 98, 6-[2-(Azetidine-1-carbonyl)-thieno[3,2-b]pyridin-7-yloxy]-2-ethyl-benzofuran-3-carboxylic acid methylamide] | 86% | 0.38 nM | 127 nM | 9.4 nM
7 | CO[C@@H]1CCN(C(=O)c2cc3nccc(Oc4ccc5c(C(=O)NCCO)c(C)sc5c4)c3s2)C1 [Example 123, 6-[(2-{[(3R)-3-Methoxypyrrolidin-1-yl]carbonyl}thieno[3,2-b]pyridin-7-yl)oxy]-2-methylbenzo[b]thiophene-3-carboxylic acid 2-hydroxyethylamide] | 74% | 2.63 nM | 229 nM | 10 nM
8 | COC[C@@H]1CCCN1C(=O)c1cc2nccc(Oc3ccc4c(C(=O)NCC5CC5)c(C)sc4c3)c2s1 [Example 132, 6[(2-{[(2S)-2-(Methoxymethyl)pyrrolidin-1-yl]carbonyl}thieno[3,2-b]pyridin-7-yl)oxy]-2-methylbenzo[b]thiophene-3-carboxyllc acid (cyclopropylmethyl)amide] | 80% | 1.78 nM | 467 nM | 5.8 nM

The next lines start with results.

Row | inhibition at 0.05 µM [1] | Ki [1] | IC50 (PDGFRβ) | SMILES | IC50 [2]
9 | 12% | 47 nM | 61 nM | CNC(=O)c1c(C)n(C)c2cc(Oc3ccnc4cc(-c5cncnc5)sc34)ccc12 [Example 39, 1,2-Dimethyl-6-(2-pyrimidin-5-yl-thieno[3,2-b]pyridin-7-yloxy)-1H-indole-3-carboxylic acid methylamide] | 8.7 nM
10 | 76% | 2.8 nM | 8.9 nM | CNC(=O)c1c(C)n(C)c2cc(Oc3ccnc4cc(-c5ccccn5)sc34)ccc12 [Example 42, 1,2-Dimethyl-6-(2-pyridin-2-yl-thieno[3,2-b]pyridin-7-yloxy)-1H-indole-3-carboxylic acid methylamide] | 4.34 nM
11 | 67% | 3.21 nM | – | CNC(=O)c1csc(-c2cc3nccc(Oc4ccc5c(C(=O)NC)c(C)n(C)c5c4)c3s2)n1 [Example 43, 1,2-Dimethyl-6-[2-(4-methylcarbamoyl-thiazol-2-yl)-thieno[3,2-b]pyridin-7-yloxy]-1H-indole-3-carboxylic acid methylamide] | 10 nM
12 | 67% | 16 nM | – | CNC(=O)c1c(C)n(C)c2cc(Oc3ccnc4cc(-c5cccc(OC)n5)sc34)ccc12 [Example 49, 6-[2-(6-Methoxy-pyridin-2-yl)-thieno[3,2-b]pyridin-7-yloxy]-1,2-dimethyl-1H-indole-3-carboxylic acid methylamide] | 7 nM
13 | 34% | 27.7 nM | – | CCC(=O)c1cc2nccc(Oc3ccc4c(C(=O)NC)c(C)n(C)c4c3)c2s1 [Example 51, 1,2-Dimethyl-6-(2-propionyl-thieno[3,2-b]pyridin-7-yloxy)-1H-indole-3-carboxylic acid methylamide] | 82 nM
14 | 75% | 5.2 nM | 90.7 nM | Cc1c(C(=O)NC(C)C)c2ccc(Oc3ccnc4cc(-c5nccs5)sc34)cc2n1C [Example 66, 1,2-Dimethyl-6-(2-thiazol-2-yl-thieno[3,2-b]pyridin-7-yloxy)-1H-indole-3-carboxylic acid isopropylamide] | 5.8 nM
